Literature values, collected in patent US8748582B2, “Affinity ligands and methods for protein purification” (Monash University, priority 2009, dated 2014).
pKd: −log10 of the molar value.

Target: IgG
Conditions: read-out: dissociation constant for IgG

For “Protein A: bacterial Fc receptor used as immobilised affinity ligand for antibodies”, the pKd is listed as 7.00.
